Key:
[1] = test system: SWELL1/LRRC8a-e mRNA in 3T3-F442A cells; assay: qRT-PCR of LRRC8 family mRNA; assay type: cell-based, murine; details: 10 µM, 96 h
Method: RNA samples were isolated using the PureLink RNA kit (Life Technologies) as per the manufacturer’s instructions. Complementary DNA (cDNA) synthesis was carried out using an iScript Reverse Transcriptase kit (Bio-Rad). […] Each sample measurement was carried out in triplicate. GAPDH was used as the internal standard and the fold change was calculated relative to GAPDH was normalized to vehicle group. The following qRT-PCR primers (5′ to 3′) were used: GAPDH forward—[…] and reverse— […]; SWELL1 forward—[…] and reverse— […]; LRRC8b forward—[…] and reverse— […]; LRRC8c forward—[…] and reverse—[…]; LRRC8d forward—[…] and reverse— […]; LRRC8e forward—[…] and reverse— […], respectively.

[2] = test system: pancreatic islets of T2D mice; assay: Insulin secretion of treated T2D mice (serum insulin, islet perifusion GSIS); assay type: in vivo, mouse
Method: Mice were fasted for 6 h prior to glucose tolerance tests (GTT). Baseline glucose levels at 0 min timepoint (fasting glucose, FG) were measured from a blood sample collected from tail snipping using glucometer (Bayer Healthcare LLC). Either 1 or 0.75 g D-Glucose/kg body weight were injected (i.p.) for lean or HFD mice, respectively and glucose levels were measured at 5 or 7, 15, 30, 60, 90, and 120 min timepoints after injection. For insulin tolerance tests (ITTs), the mice were fasted for 4 h. Similar to GTTs, the baseline blood glucose levels were measured at 0 min timepoint and 15, 30, 60, 90, and 120 min timepoints post-injection (i.p.) of insulin (HumulinR, 1 U/kg bodyweight for lean mice or 1.25 U/kg body weight for HFD mice). […] The collected plasma was then measured for insulin content by using Ultra-Sensitive Mouse Insulin ELISA Kit (Crystal Chem, #90080). All mouse studies were performed in a blinded fashion.

primary hepatocytes = assay: Signaling in cultured primary hepatocytes; assay type: cell-based, mouse; details: 10 µM, 24–48 h, SWELL1-dependent
Method: For primary hepatocytes isolation, the SWELL1^fl/fl (Wildtype, WT) and Albumin-Cre/SWELL1^fl/fl (Knockout, KO) mice were anesthetized using isoflurane. A 24 G i.v. catheter was inserted into the portal vein and a buffer containing HBSS (Ca^2+ and Mg^2+ free) + 0.5 mM EGTA was perfused through the liver at a rate of 4.5 mL/min. The portal vein was quickly cut after the perfusion began. The liver was perfused until it was free from blood and subsequently perfused with DMEM + 1x Pyruvate+ Type IV Collagenase (Sigma C5138) (1 mg/mL) for 4–5 min until the liver was soft. The liver was excised and put into 10 mL DMEM + collagenase solution. The tissue was broken down by agitation and passed through 25- and 10-mL pipette until the cells were free. The cells were suspended in 15 mL cold DMEM + 10% FBS + 1% P/S (penicillin and streptomycin). The cells were then passed through a 100 µm filter and spun at 50×g for 2 min. The supernatant was discarded and the cell pellet was washed with 25 mL of DMEM + 10% FBS + 1% P/S media three times. Cells were checked for viability by diluting 1:2 with Trypan blue and batches with >80% viability were used. The hepatocytes were then plated on Type I Collagen (75 µg/mL) coated dish with a density of 500,000 cells per well (6-well) in DMEM + 10% FBS + 1% P/S media.

[3] = set-up: method as in Zhang et al., Experimental Neurology, 2008; details: ref Zhang et al., Experimental Neurology, 2008; cited from earlier work
[4] = test system: T1, SWELL1-LRRC8 channels in the closed state, HEK-293 cells; assay: ICl,SWELL inhibition on preincubation before hypotonic activation (closed channel), patch-clamp; assay type: cell-based; details: 1 μM applied 30 min prior to hypotonic activation, vs vehicle or Inactive compounds
T1 construct: applied when the endogenous HEK-293 cell ICl,SWELL current density reached 30 pA/pF; endogenous in cells; host or cells: HEK-293 (ATCC, #CRL-1573)

murine islets = assay: GSIS perifusion of palmitate-treated murine islets; assay type: cell-based, mouse; details: 10 µM for 4 days prior to and during 1 mM palmitate 16 h, washed off during GSIS
[5] = test system: endogenous SWELL1 in 3T3-F442A preadipocytes; assay: SWELL1 plasma membrane localization, immunofluorescence; assay type: cell-based, murine; details: 1 or 10 µM, 48 h, vs vehicle or Inactive 1
Method: 3T3-F442A preadipocytes (WT, KO) and differentiated adipocytes without or with SWELL1 overexpression (WT + SWELL1 O/E, KO + SWELL1 O/E) were prepared as described in the Cell culture section on collagen-coated coverslips. […] The cells were fixed in ice-cold acetone for 15 min at −20 °C and then washed four times with 1XPBS. […] Either anti-SWELL1 (1:400) or anti-Flag (1:1500, Sigma #F3165) antibody was added to the cells and incubated overnight at 4 °C. The cells were then washed three times (1XPBS) prior to and after the addition of 1:1000 Alexa Fluor 488/568 secondary antibody (anti-rabbit, #A11034 or anti-mouse, #A11004) for 1 h at RT. Cells were counterstained with nuclear TO-PRO-3 (Life Technologies, #T3605) or DAPI (Invitrogen, #D1306) staining (1 µM) for 20 min followed by three washes with 1XPBS. Coverslips were further mounted on slides with ProLong Diamond anti-fading media. All images were captured using Zeiss LSM700/LSM510 confocal microscope with 63X objective (NA 1.4). SWELL1 membrane localization was quantified by stacking all the z-images and converting it into a binary image where the cytoplasmic intensity per unit area was subtracted from the total cell intensity per unit area using ImageJ software.

| Compound | SWELL1 and LRRC8b-e mRNA [1] | impaired GSIS (serum insulin, islet perifusion) ([2]; HFD mice, 21 weeks HFD) | pAS160 in primary hepatocytes (primary hepatocytes) | blood brain barrier passage [3] | subsequent hypotonic activation of ICl,SWELL [4] | glucose-stimulated insulin secretion after palmitate (murine islets) | plasma membrane (PM) localization of endogenous SWELL1 [5] | insulin secretion in perifusion GSIS ([2]; islets of HFD-T2D mice, compared to Inactive 1) |
| --- | --- | --- | --- | --- | --- | --- | --- | --- |
| CCCCC1(C2CCCC2)Cc2cc(OCCCC(=O)O)c(Cl)c(Cl)c2C1=O (stereo not shown) [SN-401, 4-((2-butyl-6,7-dichloro-2-cyclopentyl-1-oxo-2,3-dihydro-1H-inden-5-yl)oxy)butanoic acid] | not associated with increases in SWELL1 mRNA | significantly improved | robustly induces | does not cross the blood brain barrier | markedly suppressed and delayed | normalized | enhanced | – |
| CCCCC1(C2CCCC2)Cc2cc(OCCCCCC(=O)O)c(Cl)c(Cl)c2C1=O (stereo not shown) [SN-406, 6-((2-butyl-6,7-dichloro-2-cyclopentyl-1-oxo-2,3-dihydro-1H-inden-5-yl)oxy)hexanoic acid] | – | – | – | – | markedly suppressed and delayed | – | enhanced | significantly augmented |

Source: PMC8831520, “Small molecule SWELL1 complex induction improves glycemic control and nonalcoholic fatty liver disease in murine Type 2 diabetes” (Nature Communications, 2022)
